What all share (experiment): inhibition of tumour cell growth, NCI panel, 48 h
Test [1] concerns OVCAR-8 ovarian.
Test [2] has as its system UACC-257 melanoma.
For test [3], the system named is OVCAR-5 ovarian.
The test system of test [4] is NCI-H226 lung.
Test [5] deals with BT-549 breast.
In test [6] the test system is 786-0 renal.
The subject of test [7] is SK-MEL-5 melanoma.
Test [8] deals with SK-OV-3 ovarian.
Test [9] relates to SK-MEL-2 melanoma.
In test [10] the test system is HCC-2998 colon.

Where “and” joins values, the source holds several entries; their conditions need not be identical. Equal entries are not always repeated.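 Method: 48-hour compound exposure of cells in 96-well plates, five concentrations, linear interpolation of endpoints. GI50 = concentration required for 50% inhibition of growth. TGI marks complete inhibition of growth.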

For the compound `COC(=O)c1c[nH]c2cc(OC(C)C)c(OC(C)C)cc2c1=O`, the GI50 in [1], in test [2], in [3], in test [4], in [5] and in [6] was > 100 µM throughout. Moreover, the GI50 in test [7], in [8], in test [9] and in test [10] was > 100 µM in each case. The TGI in test [1], in test [2], in [3], in test [4], in test [5] and in test [6] was > 100 µM throughout. Also, the TGI in test [7], in [8], in [9] and in test [10] was > 100 µM in each case.

Regarding `Cc1ccc(N(C=O)c2c([N+](=O)[O-])cc([N+](=O)[O-])c3c2=[N+]([O-])CN=3)cc1`, the TGI in [1] is > 100 µM; in test [2], 58 µM; in test [3], > 100 µM; in test [4] it was > 100 µM; in test [5] it was 69 µM; in test [6], 67.6 µM. Also, the TGI in test [7] is 30.1 µM; in test [8] it was > 100 µM; in [9] it was 42.2 µM; in test [10], 43.3 µM.

`Cc1ccc(N)cc1[As]=[As]c1cc(N)ccc1C` (stereo unspecified): the GI50 is 1.57 µM in [1]; 1.25 µM in [2]; 2.07 µM in test [3]; 1.57 µM in [4]; 1.46 µM in [5]; 1.64 µM in [6]. Also, the GI50 in test [7] was 1.51 µM; in test [8], 3.59 µM; in test [9], 1.97 µM; in [10] it was 1.93 µM. Further, the TGI in test [1] amounted to 2.98 µM; in test [2], 2.54 µM; in test [3], 3.73 µM; in test [4], 3.07 µM; in [5], 2.8 µM; in test [6] it was 3.03 µM. Moreover, the TGI in test [7] amounted to 2.91 µM; in [8], 9.43 µM; in test [9] it was 3.54 µM; in test [10] it was 3.58 µM.

For the compound `COc1cccc(Nc2ncnc3cc(NC(=O)CCl)ccc23)c1`, the GI50 was 1.88 µM in test [1]; 1.41 µM in [2]; 1.61 µM in [3]; 1.91 µM in test [4]; 1.23 µM in [5]; 1.55 µM in [6]. Moreover, the GI50 is 1.25 µM in test [7], 1.58 µM in test [8], 1.69 µM in test [9] and 1.81 µM in test [10]. Also, the TGI worked out at 5.16 µM in [1]; 3.02 µM in test [2]; 3.02 µM in test [3]; 4.55 µM in [4]; 2.69 µM in [5]; 3.1 µM in test [6]. For the same compound, the TGI in test [7] turned out to be 2.55 µM; in test [8], 3.15 µM; in test [9], 3.48 µM; in [10], 3.7 µM.

With `O=C1/C(=C\c2ccc(F)cc2)CN(C(=O)c2ccccc2F)C/C1=C\c1ccc(F)cc1`, the GI50 in test [1] is 1.72 µM; in [2] it was 1.71 µM; in test [3], 1.88 µM; in test [4], 3.41 µM; in test [5] it was 1.85 µM; in test [6], 1.61 µM. Moreover, the GI50 in test [7] is 1.45 µM; in test [8] it was 2.23 µM; in [9], 2.04 µM; in test [10], 1.81 µM. For the same compound, the TGI amounted to 5.14 µM in test [1]; 3.47 µM in test [2]; 4.04 µM in test [3]; 12.8 µM in [4]; 3.41 µM in test [5]; 3.17 µM in test [6]. The TGI in test [7] is 2.83 µM; in test [8], 4.69 µM; in test [9] it was 4.61 µM; in test [10] it was 3.32 µM.

Take `COc1cccc2c1C(=O)c1c(O)c3c(c(O)c1C2=O)C[C@@](O)(C(=O)CO)CC3OC1CC(N)C(OC2CCCCO2)C(C)O1` (stereo partly specified): the GI50 was 0.018 µM in test [1]; 0.129 µM in test [2]; 0.0682 µM in test [3]; 0.0131 µM in test [6]; 0.0291 µM in test [7]; 0.0465 µM in test [8]. In test [10], the GI50 is 0.0457 µM. Moreover, the TGI in [2] is 0.455 µM and 3.42 µM; in test [3] it was 2.08 µM and 8.5 µM; in test [5] it was 0.481 µM; in [7], 0.179 µM and 1.08 µM; in test [8], 2.09 µM and 12 µM; in test [9], 4.1 µM.

On to `O=C(Nc1nc(-c2ccc(Cl)cc2)cs1)c1cc(O)c(O)c(O)c1`, for which the GI50 was 150 µM in [1]; 278 µM in [2]; 915 µM in [3]; 663 µM in test [4]; 252 µM in test [5]; 218 µM in [6]. Further, the GI50 is 194 µM in test [7], 538 µM in test [8] and 700 µM in [10]. Further, the TGI in test [1] was > 5000 µM; in test [2], 2490 µM; in test [3], > 5000 µM; in [4], 2570 µM; in [5] it was 1870 µM; in test [6], 1020 µM. Moreover, the TGI in [7] stood at 881 µM; in test [8] it was 3420 µM; in [10], 2080 µM.

`COc1cccc2c1C(=O)c1c(O)c3c(c(O)c1C2=O)C[C@@](O)(/C(CO)=N/NC(=O)CCCCCN1C(=O)C=CC1=O)C[C@@H]3O[C@H]1C[C@H](N)[C@H](O)[C@H](C)O1`: the GI50 in test [1] is 1.14 µM; in test [2], 1.06 µM; in test [3], 4.04 µM; in test [4] it was 0.56 µM; in [5], 1.21 µM; in test [6], 0.386 µM. Moreover, the GI50 was 1.63 µM in test [8], 1.68 µM in test [9] and 1.5 µM in test [10]. Moreover, the TGI in [1] was 97.4 µM; in [2] it was 4.32 µM; in [3], > 100 µM; in test [4] it was 3.37 µM; in test [5], 8.96 µM; in test [6] it was 9.21 µM. In addition, the TGI in test [8] was 36.8 µM; in test [9], 5.33 µM; in [10], > 58.1 µM.

On to `COc1ccc(Cn2cc(COc3cc(/C=C/C(=O)c4cc(OC)c(OC)c(OC)c4)ccc3OC)nn2)cc1`, for which the GI50 in [1] is 3.06 µM; in test [2] it was 10.3 µM; in [4], 2.91 µM; in test [5], 3.33 µM; in [6] it was 5.01 µM; in [7] it was 3.66 µM. Further, the GI50 in test [8] is 3.02 µM; in test [9], 8.33 µM; in test [10], 3.9 µM. The TGI is > 100 µM in test [1]; > 100 µM in [2]; 83.1 µM in [4]; > 100 µM in test [5]; > 100 µM in test [6]; 20.5 µM in [7]. The TGI is 9.18 µM in test [8], 42.1 µM in [9] and > 100 µM in [10].

With `O=C1C=C(NCCO)c2nccc3c2c1nc1ccccc13`, the GI50 in test [1] is 40 µM; in test [2], 32.2 µM; in [3], 28.6 µM; in test [4], 14.8 µM; in test [5] it was 36 µM; in test [6], 31.5 µM. In addition, the results for the GI50 in test [7], in [8] and in [9] were 16.3 µM, 80.1 µM and 27.7 µM, respectively. For the same compound, the TGI was > 100 µM in [1]; > 100 µM in [2]; > 100 µM in test [3]; 59.5 µM in [4]; > 100 µM in [5]; > 100 µM in [6]. The TGI is 35 µM in [7], > 100 µM in [8] and 88.2 µM in test [9].

`COC(=O)[C@H](Cc1cn(C)cn1)NC(=O)[C@H](CC(=O)OCc1ccccc1)NC(=O)Nc1cc(C(F)(F)F)cc(C(F)(F)F)c1`: the GI50 in test [1] is 4.49 µM; in [2] it was 6.34 µM; in [3] it was 17.2 µM; in test [4], 16.3 µM; in test [5], 12 µM; in test [6], 10.9 µM. Also, the GI50 in test [7] was 12.2 µM; in [8] it was 9.07 µM; in test [9], 3.89 µM. Besides, the TGI in [1] came to 16.9 µM; in test [2], 19.1 µM; in test [3], 34.2 µM; in test [4] it was 34.5 µM; in test [5] it was 25.8 µM; in test [6] it was 24.2 µM. Besides, the TGI is 24.6 µM in test [7], 21.4 µM in test [8] and 12.6 µM in [9].

Regarding `CC(=Nc1ccc(N(C)C)cc1)c1ccccc1`, the TGI in test [1] was > 100 µM; in test [3] it was > 100 µM; in test [4], > 100 µM; in test [5], 33.2 µM; in test [6], 36.2 µM; in test [7] it was 29.7 µM. The TGI in test [8] is > 100 µM; in test [9] it was 29.4 µM; in [10], > 100 µM.

Take `Nc1ccccc1C#C/C=C\C#Cc1ccccc1C#CCO`: the GI50 is 8.36 µM in test [1]; 11.4 µM in test [2]; 16.8 µM in [3]; 10.9 µM in [5]; 6.39 µM in test [6]; 6.1 µM in test [7]. Further, the GI50 in test [8] was 12.1 µM; in test [9] it was 8.35 µM; in test [10], 2.95 µM. The TGI was 27.1 µM in test [1]; 45.2 µM in test [2]; > 50 µM in test [3]; 41.6 µM in test [5]; 17.8 µM in test [6]; 14.1 µM in [7]. The TGI in test [8] stood at 27 µM; in test [9], 24.2 µM; in test [10], 10.6 µM.

In the case of `CN(C)c1ccc(/C=C(\C#N)c2cc3ccccc3[nH]2)cc1`, the GI50 was 2.35 µM in [1]; 4.86 µM in [2]; 3.8 µM in test [3]; 3.86 µM in test [5]; 2.52 µM in test [6]; 1.36 µM in test [7]. In addition, the values for the GI50 in [8], in test [9] and in test [10] were 2.28 µM, 0.454 µM and 6.59 µM, respectively. For the same compound, the TGI is > 100 µM in test [1]; > 100 µM in test [2]; > 100 µM in test [3]; > 100 µM in test [5]; > 100 µM in test [6]; 32.8 µM in test [7]. Also, the TGI in test [8], in [9] and in test [10] was > 100 µM each time.

Turning to `COc1ccc(Oc2nc3cc(N)cc(N)c3nc2-c2ccccc2)cc1`, the GI50 is 32.3 µM in test [1]; > 100 µM in test [2]; 94.5 µM in test [3]; 32.1 µM in test [5]; 24.4 µM in test [6]; 44.6 µM in test [7]. Further, the figures for the GI50 in test [8] and in test [9] were 25.5 µM and 25.1 µM, respectively. In addition, the TGI in test [1], in [2], in test [3], in [5], in [6] and in test [7] was > 100 µM throughout. In addition, the TGI in test [8] was 55 µM; in test [9], 87.5 µM.

Consider `NS(=O)(=O)c1ccc(N=Nc2ccc[nH]c2=O)cc1`, for which the TGI in test [1], in test [2], in test [3], in test [4], in [5] and in test [6] was > 100 µM in each case. Besides, the TGI in test [7], in [8] and in test [9] was > 100 µM in each case.

With `O=C(Oc1ccccc1)N(c1ccccc1)c1ccccc1`, the GI50 is 31.8 µM in [1]; 26.4 µM in test [2]; 45.9 µM in test [3]; 33.7 µM in test [4]; 18.2 µM in [5]; 26.2 µM in test [6]. For the same compound, the results for the GI50 in [7], in test [8] and in [9] were 15 µM, 47.3 µM and 30.6 µM, respectively. Further, the TGI is > 100 µM in [1]; 83 µM in [2]; > 100 µM in test [3]; > 100 µM in test [4]; 41.2 µM in test [5]; 83.4 µM in test [6]. In addition, the values for the TGI in test [7], in [8] and in test [9] were 29.9 µM, > 100 µM and > 100 µM, respectively.

(Values after PubChem BioAssay (NCI).)
